In the assay the target is T1, mouse VISTA (mVISTA) (Mus musculus, UniProt Q9D659).
T1 construct: expressed in transfected cells; host or cells: Human embryonic kidney 293T cells
T1 sequence (Q9D659 33-308): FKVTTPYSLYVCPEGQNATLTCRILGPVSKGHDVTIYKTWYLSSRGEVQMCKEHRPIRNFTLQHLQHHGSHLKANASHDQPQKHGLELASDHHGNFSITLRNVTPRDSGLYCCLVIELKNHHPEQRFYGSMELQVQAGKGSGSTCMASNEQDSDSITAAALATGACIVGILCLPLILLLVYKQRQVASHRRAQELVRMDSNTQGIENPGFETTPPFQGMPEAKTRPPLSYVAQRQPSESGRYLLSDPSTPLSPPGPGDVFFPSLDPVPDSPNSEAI
The assay can be described thus: Cell-Based Binding High-Content Assay For mVISTA (HC CBA mVISTA). As to the method:
Cell-Based Binding High-Content Assay For mVISTA
Human embryonic kidney 293T cells (293T) expressing mouse VISTA (mVISTA) were used for the assessment of compounds competing with the binding of a biotinylated peptide. Cryopreserved cells were thawed in a 37° C. water bath and incubated overnight at a 37° C./5% CO2 incubator in assay culture media DMEM (Life Technologies Inc. Cat. No. 11995-126) supplemented with 10% (v/v) FBS (Sigma, Cat. No. F4135), 1× Penicillin/Streptomycin (Life Technologies Inc. Cat. No. 15140-122). Cells were harvested, washed and resuspended in DMEM media […]. To test compounds under “no-wash” condition, cells were seeded into PDL-coated 384 well plates (Corning, Cat. No. 356663) at 4,000 cells/20 μL. After incubating the cell plates for two hours at a 37° C./5% CO2 incubator, 125 nL of test compound was added using an ECHO. Alternatively, to test compounds under “wash” condition, test compounds were added first, followed by addition of 20 μL cells at a density of 4000 cells/well. After incubation for an hour, the media was removed, followed by addition of 20 μL of fresh media ( ), and plates were then incubated for another hour. To plates either under “no wash” or “wash” condition, the biotinylated peptide was added to a final concentration of 2 nM, and plates were incubated at room temperature for 30 minutes. Fifteen (15) μL of Alexa 647 conjugated Streptavidin (Life Tech, Cat. No. S21374), suspended at 2 μg/ml in media, was added to the assay plate and incubate for 30 minutes. Cells were fixed by adding 15 μL of formaldehyde at a final concentration of 8% (w/v) (Sigma Cat. No. 252549), 20 μg/mL Hoechst (Thermo Scientific Cat. No. 62249) in PBS for 10 minutes at room temperature. The plates were washed 3 times in dPBS, sealed, and read on a CellInsight NXT High Content Screening Platform IC903000 (Thermo Scientific). The 50% effective concentration (IC50) was calculated using the four-parameter logistic formula y=A+((B−A)/(1+((C/x)^D))), where A and B denote minimal and maximal % inhibition, respectively, C is the EC50, D is hill slope and x represent compound concentration.

[1] abbreviates: 293T cells expressing mouse VISTA, competition with biotinylated peptide (2 nM), read-out: HC CBA mVISTA IC50.

pIC50: −log10 of the molar value. Where two headings read alike, the source gives them in different places. Starred links: 1 amine or outer side, 2 acyl side, 3 side chain; linkers in the order of their positions; H or OH if unused. Positions of bridges follow the written chain, without caps; N, C: chain ends. Non-standard residues stand in square brackets, D forms with d. Residues, ends and D or L forms follow the SMILES beside them. Phe(3-Me) = Cc1cccc(C[C@H](N)C(=O)O)c1; γGlu = O=C(O)[C@H](CCC(=O)[*:2])N[*:1]; 2Nal = N[C@@H](Cc1ccc2ccccc2c1)C(=O)O; βAsp = O=C(O)[C@H](CC(=O)[*:2])N[*:1]; Cit = NC(=O)NCCC[C@H](N)C(=O)O; Ahp(2) = CCCCC[C@H](N)C(=O)O; NMeNle = CCCC[C@H](NC)C(=O)O; Tle = CC(C)(C)[C@H](N)C(=O)O; NHexGly = CCCCCCNCC(=O)O; Nle = CCCC[C@H](N)C(=O)O; Aun = NCCCCCCCCCCC(=O)O; AEEA = NCCOCCOCC(=O)O

For `CCCCCCN1CC(=O)N[C@@H](Cc2ccc(O)cc2)C(=O)N[C@@H](C)C(=O)N[C@@H](CC(N)=O)C(=O)N[C@@H](CCCNC(=N)N)C(=O)N(C)[C@@H](CCCC)C(=O)N[C@@H](CCCCC)C(=O)N2CCC[C@H]2C(=O)N[C@@H](C(C)(C)C)C(=O)N[C@@H](CC(=O)O)C(=O)N[C@H](C(=O)N[C@@H](CC(=O)NCCOCCOCC(=O)N[C@@H](CC(=O)O)C(=O)NCCOCCOCC(=O)NCCCCCCCCCCC(=O)O)C(=O)O)CSCC(=O)N[C@@H](Cc2ccccc2)C(=O)N[C@@H](Cc2c[nH]c3ccccc23)C(=O)N[C@@H](CC(=O)O)C1=O` [compound 2094] ({CH2CO}-FWD[NHexGly]YANR[NMeNle][Ahp(2)]P[Tle]DC[βAsp][AEEA]D[AEEA][Aun]-OH; thioether N-14), the negative logarithm of the IC50 (pIC50) (cell-based binding high-content assay, mVISTA, read-out: HC CBA miPrISTA IC50) was 7.46. As to `CCCCCCN1CC(=O)N[C@@H](Cc2ccc(O)cc2)C(=O)N[C@@H](C(C)C)C(=O)NCC(=O)N[C@@H](CCCNC(=N)N)C(=O)N[C@@H](CC(C)C)C(=O)N[C@@H](CCCCC)C(=O)N2CCC[C@H]2C(=O)N[C@@H](C(C)C)C(=O)N[C@@H](CC(=O)O)C(=O)N[C@H](C(=O)N[C@@H](CO)C(=O)N[C@@H](CCCCN)C(=O)N[C@@H](CCC(N)=O)C(=O)O)CSCC(=O)N[C@@H](Cc2ccc3ccccc3c2)C(=O)N[C@@H](Cc2ccc(O)cc2)C(=O)N[C@@H](CC(=O)O)C1=O` [Example 1165] ({CH2CO}-[2Nal]YD[NHexGly]YVGRL[Ahp(2)]PVDCSKQ-OH; thioether N-14), under setting [1], the pIC50 was 7.55.

On to `CCCCCCN1CC(=O)N[C@@H](Cc2ccc(O)cc2)C(=O)N[C@@H](CCCC)C(=O)N[C@@H](CC(N)=O)C(=O)N[C@@H](CCCNC(N)=O)C(=O)N(C)[C@@H](CCCC)C(=O)N[C@@H](CCCCC)C(=O)N2CCC[C@H]2C(=O)N[C@@H](C(C)C)C(=O)N[C@@H](CC(=O)O)C(=O)N[C@H](C(=O)NCC(=O)O)CSCC(=O)N[C@@H](Cc2cccc(C)c2)C(=O)N[C@@H](Cc2c[nH]c3ccccc23)C(=O)N[C@@H](CC(=O)O)C1=O` [compound 1443] ({CH2CO}-[Phe(3-Me)]WD[NHexGly]Y[Nle]N[Cit][NMeNle][Ahp(2)]PVDCG-OH; thioether N-14), for which the pIC50 (the 19th table, scaffold drawing 22, read-out: HC CBA mVISTA IC50) was 7.67.

As to `CCCCCCN1CC(=O)N[C@@H](Cc2ccc(O)cc2)C(=O)N[C@@H](C(C)C)C(=O)NCC(=O)N[C@@H](CCCNC(=N)N)C(=O)N[C@@H](CC(C)C)C(=O)N[C@@H](CCCCC)C(=O)N2CCC[C@H]2C(=O)N[C@@H](C(C)C)C(=O)N[C@@H](CC(=O)O)C(=O)N[C@H](C(=O)NCC(=O)O)CSCC(=O)N[C@@H](Cc2ccccc2)C(=O)N[C@@H](Cc2ccc(O)cc2)C(=O)N[C@@H](CC(=O)O)C1=O` [Example 1018] ({CH2CO}-FYD[NHexGly]YVGRL[Ahp(2)]PVDCG-OH; thioether N-14), under setting [1], the pIC50 is 7.47. In the case of `CCCCCCN1CC(=O)N[C@@H](Cc2ccc(O)cc2)C(=O)N[C@@H](CCCC)C(=O)N[C@@H](CC(N)=O)C(=O)N[C@@H](CCCNC(=N)N)C(=O)N[C@@H](CC(C)C)C(=O)N[C@@H](CCCCC)C(=O)N2CCC[C@H]2C(=O)N[C@@H](C(C)(C)C)C(=O)N[C@@H](C(C)C)C(=O)N[C@H](C(=O)NCCOCCOCC(=O)N[C@@H](CCC(=O)NCCOCCOCC(=O)NCCCCCCCCCCC(=O)O)C(=O)O)CSCC(=O)N[C@@H](Cc2ccccc2)C(=O)N[C@@H](Cc2ccc(O)cc2)C(=O)N[C@@H](CC(=O)O)C1=O` [compound 2234] ({CH2CO}-FYD[NHexGly]Y[Nle]NRL[Ahp(2)]P[Tle]VC[AEEA][γGlu][AEEA][Aun]-OH; thioether N-14), for the setting “read-out: HC CBA mVISTA IC50”, the pIC50 is 7.49.

Take `CCCCCCN1CC(=O)N[C@@H](Cc2ccc(O)cc2)C(=O)N[C@@H](CCCC)C(=O)N[C@@H](CC(=O)O)C(=O)N[C@@H](CCCNC(=N)N)C(=O)N(C)[C@@H](CCCC)C(=O)N[C@@H](CCCCC)C(=O)N2CCC[C@H]2C(=O)N[C@@H](C(C)C)C(=O)N[C@@H](CC(=O)O)C(=O)N[C@H](C(=O)N[C@@H](CC(=O)O)C(N)=O)CSCC(=O)N[C@@H](Cc2ccccc2)C(=O)N[C@@H](Cc2ccc(O)cc2)C(=O)N[C@@H](CC(=O)O)C1=O` [Example 1073] ({CH2CO}-FYD[NHexGly]Y[Nle]DR[NMeNle][Ahp(2)]PVDCD-NH2; thioether N-14): for the setting “293T cells expressing mouse VISTA, competition with biotinylated peptide (2 nM), read-out: CBA mVISTA IC50”, the pIC50 was 8.18.
